Measurements taken from US12448377B2, “Heterocyclic compound” (Takeda Pharmaceutical Company Limited, priority 2019, dated 2025).

Molecular target: T1, human orexin type 2 receptor (Homo sapiens, UniProt O43614)
T1 construct: expressed in transfected cells
T1 sequence (O43614 1-444): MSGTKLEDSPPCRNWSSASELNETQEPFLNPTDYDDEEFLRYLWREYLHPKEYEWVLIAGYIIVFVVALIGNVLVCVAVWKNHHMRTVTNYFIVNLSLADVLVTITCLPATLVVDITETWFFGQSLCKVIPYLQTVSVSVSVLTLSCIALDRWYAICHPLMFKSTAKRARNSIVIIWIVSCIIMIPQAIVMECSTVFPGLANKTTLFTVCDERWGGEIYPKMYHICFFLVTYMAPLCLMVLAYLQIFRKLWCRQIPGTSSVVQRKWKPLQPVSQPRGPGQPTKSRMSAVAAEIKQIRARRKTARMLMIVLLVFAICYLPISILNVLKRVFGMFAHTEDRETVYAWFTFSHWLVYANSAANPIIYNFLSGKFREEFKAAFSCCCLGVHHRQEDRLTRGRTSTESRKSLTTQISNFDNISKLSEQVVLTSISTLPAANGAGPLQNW
Test: Measurement of orexin type 2 receptor agonist activity (calcium fluorescence, CHO cells forcibly expressing human OX2 receptor)
Assay type: cell-based
Details: compound at 3 μM, DMSO = 0%, orexin A (human) 10 nM = 100%
Excerpt: To obtain a cell clone stably expressing human orexin type 2 receptor, human orexin type 2 receptor cDNA was inserted into pcDNA3.1(+) plasmid vector (Invitrogen), and a plasmid DNA for expression of human orexin type 2 receptor (pcDNA3.1(+)/hOX2R) was cloned. The plasmid DNA was introduced into CHO-K1 cell by an electroporation method, and human orexin type 2 receptor-expressing clonal cells were obtained by limiting dilution method using G418 drug resistance as a selection marker.
CHO cells forcibly expressing human OX2 receptor were seeded in each well of 384 well black transparent bottom plate (BD Falcon) at 10,000 cells/well, and cultured for one day in a 5% CO2 incubator at 37° C. After removal of the medium in the cell plate, assay buffer A containing a calcium indicator (HBSS (Thermo Fisher Scientific), 20 mM HEPES (Thermo Fisher Scientific), 0.1% BSA (Sigma-Aldrich), 2.5 μg/mL Fluo-4 AM (DOJINDO Chemical), 0.08% Pluronic F127 (DOJINDO Chemical), 1.25 mM probenecid (DOJINDO Chemical)) was added thereto at 30 μL/well. The plate was stood for 30 min in a 5% CO2 incubator at 37° C., and further stood at room temperature for 30 min. A test compound prepared by diluting with assay buffer B (HBSS, 20 mM HEPES, 0.1% BSA) was added thereto at 10 μL/well, and the fluorescence value was measured by FDSSμCELL (Hamamatsu Photonics K.K.) every one sec for 1 min, and thereafter every two sec for 1 min 40 sec. The activity (%) of the test compound was calculated assuming that variation in the fluorescence value when DMSO was added instead of the test compound was 0%, and variation in the fluorescence value when orexin A (human) (PEPTIDE INSTITUTE, INC.) was added at the final concentration of 10 nM was 100%.

SMILES: CCOCC1CCC(OCC2C(NS(C)(=O)=O)CCc3ccc(C)c(=O)n32)CC1 (racemic) [Example 81, rac-N-[(3S,4R)-4-({[(1s,4S)-4-(ethoxymethyl)cyclohexyl]oxy}methyl)-7-methyl-6-oxo-1,3,4,6-tetrahydro-2H-quinolizin-3-yl]methanesulfonamide]
- OX2R agonist activity (3 μM, %): 102%

SMILES: Cc1ccc2n(c1=O)C(COC1CCC(COC3CCCCO3)CC1)C(NS(C)(=O)=O)CC2 (racemic) [Example 82, N-[(3SR,4RS)-7-methyl-4-(([(1s,4S)-4-{[(oxay-2-yl)oxy]methyl}cyclohexyl]oxy}methyl)-6-oxo-1,3,4,6-tetrahydro-2H-quinolizin-3-yl]methanesulfonamide]
- OX2R agonist activity (3 μM, %): 56%

SMILES: COCCC1CCC(OCC2C(NS(C)(=O)=O)CCc3ccc(C)c(=O)n32)CC1 (racemic) [Example 83, rac-N-[(3S,4R)-4-({[(1s,4S)-4-(2-methoxyethyl)cyclohexyl]oxy}methyl)-7-methyl-6-oxo-1,3,4,6-tetrahydro-2H-quinolizin-3-yl]methanesulfonamide]
- OX2R agonist activity (3 μM, %): 91%

SMILES: CCOC(=O)CC1CCC(OCC2C(NS(C)(=O)=O)CCc3ccc(C)c(=O)n32)CC1 (racemic) [Example 84, rac-ethyl [(1S,4s)-4-({(3S,4R)-3-[(methanesulfonyl)amino]-7-methyl-6-oxo-1,3,4,6-tetrahydro-2H-quinolizin-4-yl}methoxy)cyclohexyl]acetate]
- OX2R agonist activity (3 μM, %): 75%

SMILES: Cc1ccc2n(c1=O)C(COC1CCC(CC(C)(C)O)CC1)C(NS(C)(=O)=O)CC2 (racemic) [Example 85, rac-N-[(3S,4R)-4-({[(1s,4S)-4-(2-hydroxy-2-methylpropyl)cyclohexyl]oxy}methyl)-7-methyl-6-oxo-1,3,4,6-tetrahydro-2H-quinolizin-3-yl]methanesulfonamide]
- OX2R agonist activity (3 μM, %): 59%

SMILES: Cc1ccc2n(c1=O)C(COC1CCC(CF)CC1)C(NS(C)(=O)=O)CC2 (racemic) [Example 86, rac-N-[(3S,4R)-4-({[(1s,4S)-4-(fluoromethyl)cyclohexyl]oxy}methyl)-7-methyl-6-oxo-1,3,4,6-tetrahydro-2H-quinolizin-3-yl]methanesulfonamide]
- OX2R agonist activity (3 μM, %): 89%

SMILES: Cc1ccc2n(c1=O)C(COC1CCC(CC3CC3)CC1)C(NS(C)(=O)=O)CC2 (racemic) [Example 87, rac-N-[(3S,4R)-4-({[(1s,4S)-4-(cyclopropylmethyl)cyclohexyl]oxy}methyl)-7-methyl-6-oxo-1,3,4,6-tetrahydro-2H-quinolizin-3-yl]methanesulfonamide]
- OX2R agonist activity (3 μM, %): 89%

SMILES: Cc1ccc2n(c1=O)C(COC1CCC(CC(C)C)CC1)C(NS(C)(=O)=O)CC2 (racemic) [Example 88, rac-N-[(3S,4R)-7-methyl-4-({[(1a,4S)-4-(2-methylpropyl)cyclohexyl]oxy}methyl)-6-oxo-1,3,4,6-tetrahydro-2H-quinolizin-3-yl]methanesulfonamide]
- OX2R agonist activity (3 μM, %): 95%

SMILES: Cc1ccc2n(c1=O)C(COC1CCC(COC(C)C)CC1)C(NS(C)(=O)=O)CC2 (racemic) [Example 92, rac-N-[(3S,4R)-7-methyl-6-oxo-4-({[(1s,4S)-4-([(propan-2-yl)oxy]methyl}cyclohexyl]oxy}methyl)-1,3,4,6-tetrahydro-2H-quinolizin-3-yl]methanesulfonamide]
- OX2R agonist activity (3 μM, %): 90%

SMILES: Cc1ccc2n(c1=O)C(COC1CCC(C3CCC3)CC1)C(NS(C)(=O)=O)CC2 (racemic) [Example 93, rac-N-[(3S,4R)-4-({[(1s,4S)-4-cyclobutylcyclohexyl]oxy}methyl)-7-methyl-6-oxo-1,3,4,6-tetrahydro-2H-quinolizin-3-yl]methanesulfonamide]
- OX2R agonist activity (3 μM, %): 97%

SMILES: Cc1ccc2n(c1=O)C(COC1CCC(C3CC3C)CC1)C(NS(C)(=O)=O)CC2 (racemic) [Example 97, N-{7-methyl-4-[({(1S,4S)-4-[(1RS,2SR)-2-methylcyclopropyl]cyclohexyl)oxy)methyl]-6-oxo-1,3,4,6-tetrahydro-2H-quinolizin-3-yl]methanesulfonamide]
- OX2R agonist activity (3 μM, %): 94%

SMILES: C=CC1CCC(OCC2C(NS(C)(=O)=O)CCc3ccc(C)c(=O)n32)CC1 (racemic) [Example 99, rac-N-[(3S,4R)-4-({[(1s,4S)-4-ethenylcyclohexyl]oxy}methyl)-7-methyl-6-oxo-1,3,4,6-tetrahydro-2H-quinolizin-3-yl]methanesulfonamide]
- OX2R agonist activity (3 μM, %): 91%

SMILES: C#CC1CCC(OCC2C(NS(C)(=O)=O)CCc3ccc(C)c(=O)n32)CC1 (racemic) [Example 108, rac-N-[(3S,4R)-4-({[(1s,4S)-4-ethynylcyclohexyl]oxy}methyl)-7-methyl-6-oxo-1,3,4,6-tetrahydro-2H-quinolizin-3-yl]methanesulfonamide]
- OX2R agonist activity (3 μM, %): 101%

SMILES: CC#CC1CCC(OCC2C(NS(C)(=O)=O)CCc3ccc(C)c(=O)n32)CC1 (racemic) [Example 109, rac-N-[(3S,4R)-7-methyl-6-oxo-4-({[(1s,4S)-4-(prop-1-yn-1-yl)cyclohexyl]oxy}methyl)-1,3,4,6-tetrahydro-2H-quinolizin-3-yl]methanesulfonamide]
- OX2R agonist activity (3 μM, %): 96%

SMILES: C/C=C\C1CCC(OCC2C(NS(C)(=O)=O)CCc3ccc(C)c(=O)n32)CC1 (racemic) [Example 110, rac-N-{(3S,4R)-7-methyl-6-oxo-4-[({(1s,4S)-4-[(1Z)-prop-1-en-1-yl]cyclohexyl}oxy)methyl]-1,3,4,6-tetrahydro-2H-quinolizin-3-yl}methanesulfonamide]
- OX2R agonist activity (3 μM, %): 91%

SMILES: Cc1ccc2n(c1=O)C(COC1CCC(c3ccccn3)CC1)C(NS(C)(=O)=O)CC2 (racemic) [Example 116, rac-N-[(3S,4R)-7-methyl-6-oxo-4-({[(1s,4S)-4-(pyridin-2-yl)cyclohexyl]oxy)methyl)-1,3,4,6-tetrahydro-2H-quinolizin-3-yl]methanesulfonamide]
- OX2R agonist activity (3 μM, %): 99%

SMILES: Cc1ccc2n(c1=O)C(COC1CCC(C)CC1)C(NS(C)(=O)=O)CC2 [Example 1, rel-N-[(3S,4R)-7-methyl-4-({[(1s,4S)-4-methylcyclohexyl]oxy}methyl)-6-oxo-1,3,4,6-tetrahydro-2H-quinolizin-3-yl]methanesulfonamide]
- OX2R agonist activity (3 μM, %): 96%

SMILES: Cc1ccc2n(c1=O)C(COC1CCC(C)CC1)C(NS(C)(=O)=O)CC2 [Example 5, rel-N-[(3S,4R)-7-methyl-4-({[(1r,4R)-4-methylcyclohexyl]oxy}methyl)-6-oxo-1,3,4,6-tetrahydro-2H-quinolizin-3-yl]methanesulfonamide]
- OX2R agonist activity (3 μM, %): 112%

SMILES: CCC1CCC(OCC2C(NS(C)(=O)=O)CCc3ccc(C4CC4)c(=O)n32)CC1 [Example 66, rel-N-[(3S,4R)-7-cyclopropyl-4-({[(1s,4S)-4-ethylcyclohexyl]oxy}methyl)-6-oxo-1,3,4,6-tetrahydro-2H-quinolizin-3-yl]methanesulfonamide]
- OX2R agonist activity (3 μM, %): 96%

SMILES: CCc1ccc2n(c1=O)C(COC1CCC(C)CC1)C(NS(=O)(=O)CC)CC2 [Example 71, rel-N-[(3S,4R)-7-ethyl-4-(([(1s,4S)-4-methylcyclohexyl]oxy}methyl)-6-oxo-1,3,4,6-tetrahydro-2H-quinolizin-3-yl)ethanesulfonamide]
- OX2R agonist activity (3 μM, %): 99%

SMILES: Cc1ccc2n(c1=O)C(COC1CCC(c3ccccc3C(F)(F)F)CC1)C(NS(C)(=O)=O)CC2 [Example 72, rel-N-{(3S,4R)-7-methyl-6-oxo-4-[({(1s,4S)-4-[2-(trifluoromethyl)phenyl]cyclohexyl}oxy)methyl]-1,3,4,6-tetrahydro-2H-quinolizin-3-yl]methanesulfonamide]
- OX2R agonist activity (3 μM, %): 108%

SMILES: Cc1ccc2n(c1=O)C(COC1CCC(c3c(F)cccc3F)CC1)C(NS(C)(=O)=O)CC2 [Example 89, rel-N-[(3S,4R)-4-({[(1s,4S)-4-(2,6-difluorophenyl)cyclohexyl]oxy)methyl)-7-methyl-6-oxo-1,3,4,6-tetrahydro-2H-quinolizin-3-yl]methanesulfonamide]
- OX2R agonist activity (3 μM, %): 89%

SMILES: COc1ccccc1C1CCC(OCC2C(NS(C)(=O)=O)CCc3ccc(C)c(=O)n32)CC1 [Example 90, rel-N-[(3S,4R)-4-({[(1s,4S)-4-(2-methoxyphenyl)cyclohexyl]oxy}methyl)-7-methyl-6-oxo-1,3,4,6-tetrahydro-2H-quinolizin-3-yl]methanesulfonamide]
- OX2R agonist activity (3 μM, %): 87%
